≈ marks a conversion by molar mass, not a printed value. Like-named read-outs stand apart in the source and are kept apart here.
How the values were obtained:
[1] = molecular target: T1, E. coli DNA gyrase (Escherichia coli (strain K12), UniProt P0AES4+P0AES6); assay: biochemical; assay type: biochemical
[2] = tested on: B. subtilis (ATCC 6633); assay: Minimum inhibitory concentration, broth microdilution; settings: Bacillus subtilis, ATCC6633, read-out: Minimum Inhibitory Concentration B.subtilis
Procedure: (§1) Antibacterial minimum inhibitory concentrations (MICs) were obtained from three independent experiments using broth microdilution methods in 96-well plates according to Clinical and Laboratory Standards Institute guidelines. Cells were culture from singles colonies in MHIIB medium for 24 h at 37° C. in agitation (200 RPM). The cultures were then diluted using the same media to reach an OD600 of 0.1. Then, 50 µL of the diluted cultures were added to the plates holding 50 µL of serially diluted compounds in MHIIB. The plates were incubated at 37° C. for 20 h. The starting inoculum was fixated to 10^5 colony-forming units per ml.

[3] = tested on: S. aureus (ATCC 14775); assay: as above; settings: for MIC: Staphylococcus aureus
[4] = molecular target: Mtb DNA gyrase (Mycobacterium tuberculosis (strain ATCC 25618 / H37Rv), UniProt P9WG45+P9WG47); assay: Mtb DNA gyrase inhibition assay (gel-based); assay type: biochemical; settings: Table 5, Mtb gyrase; read-out: IC50 (µM) Mtb
Procedure: The IC50 against E. coli (A) and Mtb (C) gyrase were determined using the gel-based gyrase inhibition assays. The gyrase mediated DNA cleavage assays (B and D) were performed using pBR322. (A) 229 inhibits E. coli gyrase. Lane 1, rx pAB1. […] Lane 1, rx pAB1. […] 100 µM of CPDs were used. Symbols rx, nk, In, and sc represent relaxed, nicked, linear, and supercoiled DNA, respectively.
Agarose gel-based DNA gyrase inhibition assays were performed in 30 µL of 1 ×gyrase buffer (35 mM Tris-HCl, 24 mM KCl, 4 mM MgCl2, 2 mM DTT, 1.75 mM ATP, 0.1 mg/mL BSA, 6.5% glycerol, pH7.5) containing 400 ng of rx pAB1 at 37° C. 100 ng of DNA gyrase was used to supercoil the rx pAB1 in the presence of different concentrations of a gyrase inhibitor. After 15 minutes of incubation with the inhibitor at 37° C., all reactions were stopped with 1 µL of stop solution (3% SDS and 250 mM EDTA). Samples were analyzed by electrophoresis in 1% w/v agarose gels followed by ethidium bromide staining and photographed under UV light.

[5] = molecular target: T1, E. coli DNA gyrase; assay: Agarose gel-based DNA gyrase inhibition assay; assay type: biochemical
Procedure: 100 ng of DNA gyrase was used to supercoil the rx pAB1 in the presence of different concentrations of a gyrase inhibitor. […] Samples were analyzed by electrophoresis in 1% w/v agarose gels followed by ethidium bromide staining and photographed under UV light.

[6] = tested on: Mtb; assay: Mtb whole cell assay (% inhibition, MIC); assay type: cell-based, Mycobacterium tuberculosis; settings: Mycobacterium tuberculosis; Table 5 (same values in Table 6 at 20 µM)
[7] = tested on: MRSA; assay: Minimum inhibitory concentration, broth microdilution; settings: for MIC: Staphylococcus aureus, MRSA
Procedure: as §1

[8] = tested on: E. coli (ATCC 25922); assay: as above; settings: Escherichia coli, ATCC25922, read-out: Minimum Inhibitory Concentration E. coli, Tables 3a-3c
Procedure: as §1

[9] = in vitro; settings: mouse
[10] = in vitro; settings: human
[11] = molecular target: E. coli DNA topoisomerase IV (Escherichia coli (strain K12), UniProt P0AFI2+P20083); assay: E. coli DNA topoisomerase IV relaxation assay (gel-based); assay type: biochemical; settings: IC50 Topoisomerase IV Gel-based, Table 8
Procedure: Relaxation assays by E. coli DNA topoisomerase IV and the ATPase assays were performed. […] Lane 1 is supercoiled plasmid pAB1. […] The supercoiled, fluorescently-labeled plasmid pAB1_FL905 was used.

[12] = IC50 (µM) EC, Table 5, E. coli gyrase
[13] = ATCC14775, read-out: MIC (µM) SA
[14] = ATCC14775, read-out: Minimum Inhibitory Concentration S.aureus
[15] = read-out: Minimum Inhibitory Concentration S.aureus MRSA
[16] = IC50 (50-200 µM), bin of Table 2

Sequence of E. coli DNA topoisomerase IV (P0AFI2 whole entry, looked up): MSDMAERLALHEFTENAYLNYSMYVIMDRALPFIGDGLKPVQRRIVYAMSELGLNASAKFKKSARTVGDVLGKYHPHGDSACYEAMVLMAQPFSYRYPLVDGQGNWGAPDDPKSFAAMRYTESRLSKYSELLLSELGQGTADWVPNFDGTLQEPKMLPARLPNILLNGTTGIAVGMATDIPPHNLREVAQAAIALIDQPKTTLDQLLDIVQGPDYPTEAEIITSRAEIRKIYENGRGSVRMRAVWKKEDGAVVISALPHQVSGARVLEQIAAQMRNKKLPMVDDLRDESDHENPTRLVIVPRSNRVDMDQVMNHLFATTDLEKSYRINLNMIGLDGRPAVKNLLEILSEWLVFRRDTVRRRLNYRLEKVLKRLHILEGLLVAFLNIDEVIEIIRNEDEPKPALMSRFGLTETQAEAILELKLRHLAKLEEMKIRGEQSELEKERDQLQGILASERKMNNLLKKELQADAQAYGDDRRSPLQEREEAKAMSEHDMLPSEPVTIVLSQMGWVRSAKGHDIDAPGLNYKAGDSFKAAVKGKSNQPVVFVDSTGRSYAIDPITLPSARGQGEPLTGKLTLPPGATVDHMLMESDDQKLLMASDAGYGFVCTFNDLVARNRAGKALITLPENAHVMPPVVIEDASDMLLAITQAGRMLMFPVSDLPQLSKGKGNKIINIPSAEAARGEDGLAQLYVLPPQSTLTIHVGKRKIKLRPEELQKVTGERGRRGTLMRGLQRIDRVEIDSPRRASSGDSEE
Sequence of E. coli DNA topoisomerase IV (P20083 whole entry, looked up): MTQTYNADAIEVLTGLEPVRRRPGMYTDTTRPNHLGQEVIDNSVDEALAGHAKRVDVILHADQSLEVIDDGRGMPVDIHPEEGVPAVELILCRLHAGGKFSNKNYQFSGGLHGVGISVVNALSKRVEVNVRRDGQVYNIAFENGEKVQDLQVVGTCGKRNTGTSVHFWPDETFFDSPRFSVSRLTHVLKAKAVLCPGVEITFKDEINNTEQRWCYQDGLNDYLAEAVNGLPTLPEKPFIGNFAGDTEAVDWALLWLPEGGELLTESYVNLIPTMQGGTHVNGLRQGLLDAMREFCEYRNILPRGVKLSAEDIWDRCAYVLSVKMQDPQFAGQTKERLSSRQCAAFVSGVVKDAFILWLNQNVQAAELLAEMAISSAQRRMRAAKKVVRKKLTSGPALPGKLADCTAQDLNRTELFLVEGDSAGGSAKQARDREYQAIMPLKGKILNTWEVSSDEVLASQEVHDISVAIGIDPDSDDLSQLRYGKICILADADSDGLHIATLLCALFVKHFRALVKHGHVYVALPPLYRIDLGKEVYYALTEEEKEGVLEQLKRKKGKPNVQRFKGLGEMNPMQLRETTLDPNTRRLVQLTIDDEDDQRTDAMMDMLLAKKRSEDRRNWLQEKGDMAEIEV

Cc1c(CCC(=O)O)c(=O)oc2c(C)c3occ(-c4ccc(F)cc4)c3cc12 [Compound 123]
IC50 [1, 12]: 28.1 µM
MIC [2]: 6.25 µM (≈ 2.38 µg/mL)
MIC [3, 13]: 1.6 µM (≈ 0.609 µg/mL)
MIC [3, 14]: 1.56 µM (≈ 0.593 µg/mL)
IC50 [4]: 34 µM
inhibition of E. coli DNA gyrase activities ([5]; 50 µM of compounds): completely inhibited
inhibition at 20 µM [6]: 31.8%
MIC ([7]; read-out: MIC (µM) MRSA): 1.6 µM (≈ 0.609 µg/mL)
MIC [7, 15]: 1.56 µM (≈ 0.593 µg/mL)

O=C(Nc1cccc(C2=NCCN2)c1)Nc1cccc(C2=NCCN2)c1 [Compound 79]
IC50 [1, 16]: 50 to 200 µM
MIC [8]: 200 µM (≈ 69.7 µg/mL)
MIC [2]: 100 µM (≈ 34.8 µg/mL)
MIC [3, 14]: 200 µM (≈ 69.7 µg/mL)
MIC [7, 15]: 200 µM (≈ 69.7 µg/mL)

O=C(O)c1ccc(NN=CC=Cc2ccc([N+](=O)[O-])o2)cc1 [Compound 110]
IC50 [1, 16]: 50 to 200 µM
IC50 [9]: > 200 µM
inhibition of E. coli DNA gyrase activities ([5]; 50 µM of compounds): potently inhibited
IC50 [10]: > 200 µM

Cc1coc2cc3oc(=O)c(CCC(=O)O)c(C)c3cc12 [Compound 122]
IC50 [1, 12]: > 200 µM
MIC [3, 13]: > 200 µM
IC50 [4]: > 200 µM
inhibition of E. coli DNA gyrase activities ([5]; 50 µM of compounds): potently inhibited
inhibition at 20 µM [6]: 15.7%
MIC ([7]; read-out: MIC (µM) MRSA): > 200 µM

Cc1c(CC(=O)O)c(=O)oc2c(C)c3occ(-c4ccc(Br)cc4)c3cc12 [Compound 117]
IC50 [1, 12]: 15.7 µM
MIC [3, 13]: 1.6 µM (≈ 0.684 µg/mL)
MIC [3, 14]: 1.56 µM (≈ 0.667 µg/mL)
IC50 [4]: 50 µM
inhibition of E. coli DNA gyrase activities ([5]; 50 µM of compounds): completely inhibited
inhibition at 20 µM [6]: 24.7%
MIC ([7]; read-out: MIC (µM) MRSA): 1.6 µM (≈ 0.684 µg/mL)
MIC [7, 15]: 1.56 µM (≈ 0.667 µg/mL)

CC(=O)Nc1ccc(/C=C2\Sc3ccccc3C2=O)cc1 [Compound 54]
IC50 [1, 16]: 50 to 200 µM
IC50 [9]: > 200 µM
inhibition of E. coli DNA gyrase activities ([5]; 200 µM of compounds): almost completely inhibited
IC50 [10]: > 200 µM

Cc1c(CCC(=O)O)c(=O)oc2cc3occ(-c4ccc(Cl)cc4)c3cc12 [Compound 25]
inhibition of E. coli DNA gyrase activities [1]: potent bacterial DNA gyrase inhibitors
IC50 [1, 12]: 11.5 µM
MIC [3, 13]: > 200 µM
IC50 [4]: 65 µM
inhibition of E. coli DNA gyrase activities ([5]; 50 µM of compounds): almost completely inhibited
inhibition of E. coli DNA gyrase activities ([5]; 200 µM of compounds): completely inhibited
inhibition at 20 µM [6]: 0.8%

Cc1c(CCC(=O)O)c(=O)oc2c(C)c3occ(-c4ccc(Cl)cc4)c3cc12 [Compound 120]
IC50 [1, 12]: 7.9 µM
MIC [3, 13]: 1.6 µM (≈ 0.635 µg/mL)
MIC [3, 14]: 1.56 µM (≈ 0.619 µg/mL)
IC50 [4]: 33 µM
inhibition of E. coli DNA gyrase activities ([5]; 50 µM of compounds): completely inhibited
inhibition at 20 µM [6]: 18.7%
MIC ([7]; read-out: MIC (µM) MRSA): 1.6 µM (≈ 0.635 µg/mL)
MIC [7, 15]: 1.56 µM (≈ 0.619 µg/mL)

Cc1cccc2c1N=C(O)C2/N=N/c1ccc(C(=O)O)cc1 (centres unmarked) [Compound 128]
IC50 [9]: > 200 µM
MIC [2]: 25 µM (≈ 7.38 µg/mL)
MIC [3, 14]: 50 µM (≈ 14.8 µg/mL)
inhibition of E. coli DNA gyrase activities ([5]; 50 µM of compounds): completely inhibited
IC50 [10]: > 200 µM
MIC [7, 15]: 50 µM (≈ 14.8 µg/mL)

O=C(O)c1cc(O)c(O)c(O)c1 [gallic acid]
inhibition of E. coli DNA gyrase activities [1]: does not inhibit E. coli DNA gyrase up to 500 µM
IC50 ([5]; Table 8, read-out: IC50 Gyrase Gel-based): > 500 µM
IC50 [11]: > 500 µM

CC(=O)Nc1ccc(S(=O)(=O)Nc2nc3ccccc3nc2Nc2ccc(C(=O)O)c(O)c2)cc1 [Compound 30]
IC50 [9]: > 200 µM
IC50 [10]: > 200 µM

COc1cc(/C=N/N=c2\[nH]c3ccccc3s2)cc([N+](=O)[O-])c1O [Compound 178]
IC50 [9]: > 200 µM
inhibition of E. coli DNA gyrase activities ([5]; 50 µM of compounds): completely inhibited
IC50 [10]: > 200 µM

Cc1c(C)c2cc3c(-c4ccc(Br)cc4)coc3c(C)c2oc1=O [Compound 118]
IC50 [1, 12]: > 200 µM
MIC [3, 13]: > 200 µM
IC50 [4]: > 200 µM
inhibition at 20 µM [6]: 21.8%
MIC ([7]; read-out: MIC (µM) MRSA): > 200 µM

COc1cc2ccccc2cc1C(=O)NC(=S)Nc1ccc(C(=O)O)cc1 [Compound 72]
MIC [8]: 100 µM (≈ 38 µg/mL)

O=C(O)c1ccc(/N=N/C2C(O)=Nc3ccc(F)cc32)cc1 (centres unmarked) [Compound 127]
IC50 [9]: > 200 µM
MIC [2]: 25 µM (≈ 7.48 µg/mL)
MIC [3, 14]: 50 µM (≈ 15 µg/mL)
inhibition of E. coli DNA gyrase activities ([5]; 50 µM of compounds): completely inhibited
IC50 [10]: > 200 µM
MIC [7, 15]: 50 µM (≈ 15 µg/mL)

Cc1c(CCC(=O)O)c(=O)oc2c(C)c3occ(-c4ccc(N5CCCC5)cc4)c3cc12 [Compound 125]
inhibition of E. coli DNA gyrase activities [1]: potently inhibited
IC50 [1, 12]: 4.9 µM
growth of S. aureus [3]: did not inhibit the growth
MIC [3, 13]: > 200 µM
IC50 [4]: 55 µM
inhibition of E. coli DNA gyrase activities ([5]; 50 µM of compounds): completely inhibited
inhibition at 20 µM [6]: 10.2%
growth of MRSA [7]: did not inhibit the growth

Cc1c(CCC(=O)O)c(=O)oc2c(C)c3occ(-c4ccccc4)c3cc12 [Compound 121]
IC50 [1, 12]: 28 µM
MIC [2]: 50 µM (≈ 18.1 µg/mL)
MIC [3, 13]: 3.1 µM (≈ 1.12 µg/mL)
MIC [3, 14]: 3.12 µM (≈ 1.13 µg/mL)
IC50 [4]: 58 µM
inhibition at 20 µM [6]: 36.7%
MIC ([7]; read-out: MIC (µM) MRSA): 3.1 µM (≈ 1.12 µg/mL)
MIC [7, 15]: 3.12 µM (≈ 1.13 µg/mL)

CSc1nc(SCC(=O)O)c2sc3nc(-c4ccccc4)c4c(c3c2n1)CCC4 [Compound 19]
IC50 [9]: > 200 µM
inhibition of E. coli DNA gyrase activities ([5]; 50 µM of compounds): completely inhibited
inhibition of E. coli DNA gyrase activities ([5]; 200 µM of compounds): completely inhibited
IC50 [10]: > 200 µM

CCN(CC)c1ccc(C=C2SC(=S)NC2=O)cc1 [Compound 212]
IC50 ([1]; IC50 ([…]-50 µM), bin of Table 2): 25 to 50 µM
IC50 [9]: > 200 µM
inhibition of E. coli DNA gyrase activities ([5]; 50 µM of compounds): completely inhibited
inhibition of E. coli DNA gyrase activities ([5]; 200 µM of compounds): completely inhibited
IC50 [10]: > 200 µM

O=C(O)c1cccc(-c2ccc(/C=c3/sc4nc5ccccc5n4c3=O)o2)c1 [Compound 47]
IC50 [9]: > 200 µM
inhibition of E. coli DNA gyrase activities ([5]; 50 µM of compounds): completely inhibited
inhibition of E. coli DNA gyrase activities ([5]; 200 µM of compounds): completely inhibited
IC50 [10]: > 200 µM

CCn1c(N)[n+](CC(=O)Nc2ccc(SC(F)F)cc2)c2ccccc21.[Cl-] [Compound 135]
IC50 ([1]; IC50 (15-[…] µM), bin of Table 2): 15 to 25 µM
MIC [8]: 200 µM
MIC [2]: 50 µM
MIC [3, 14]: 50 µM
inhibition of E. coli DNA gyrase activities ([5]; 50 µM of compounds): completely inhibited
MIC [7, 15]: 50 µM

Cc1cc(/C=C2\SC(=S)NC2=O)c(C)n1C [Compound 64]
IC50 [1, 16]: 50 to 200 µM
IC50 [9]: > 200 µM
inhibition of E. coli DNA gyrase activities ([5]; 200 µM of compounds): completely inhibited
IC50 [10]: > 200 µM

Source: patent US20230364057A1, “BACTERIAL DNA GYRASE INHIBITORS AND METHODS OF USE THEREOF” (THE FLORIDA INTERNATIONAL UNIVERSITY BOARD OF TRUSTEES, priority 2022, published 2023)
